The source of these data is the supplement of paper PMC10307832.

Common to all, as to experiment: relative viability (nuclei count vs DMSO), 5 days (fraction); higher = more cells survive
Compound in experiment [1]: CC(C)N(CCCNC(=O)Nc1ccc(C(C)(C)C)cc1)C[C@H]1O[C@@H](n2ccc3c(N)ncnc32)[C@H](O)[C@@H]1O + C[C@]1(O)C[C@@H](c2nc(-c3ccc4ccc(-c5ccccc5)nc4c3)c3c(N)nccn32)C1 [Linsitinib] (partner 1 µM)
Summed up: (§1)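 Dosing by pin tool came one day after lung cancer cell lines were seeded in 1536-well plates, using either one drug or a fixed anchor-drug dose plus five library-drug doses (not always all listed) in √10 steps. After 5 days, nuclei were counted on 4× images. Relative viability is treated-well nuclei count divided by vehicle-well nuclei count, and values are medians of duplicate plates.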

Compound in the experiment “Shikonin + Luminespib”: CC(C)=CC[C@@H](O)C1=CC(=O)c2c(O)ccc(O)c2C1=O [Shikonin] + CCNC(=O)c1noc(-c2cc(C(C)C)c(O)cc2O)c1-c1ccc(CN2CCOCC2)cc1 [Luminespib] (partner 0.01 µM)
Summed up: as §1

Compound in experiment [2]: CC(C)N(CCCNC(=O)Nc1ccc(C(C)(C)C)cc1)C[C@H]1O[C@@H](n2ccc3c(N)ncnc32)[C@H](O)[C@@H]1O + Nc1ncn([C@H]2C[C@H](O)[C@@H](CO)O2)c(=O)n1 [Decitabine] (partner 2 µM)
An outline of the steps:
as §1

Compound in the experiment “Shikonin + Olaparib”: CC(C)=CC[C@@H](O)C1=CC(=O)c2c(O)ccc(O)c2C1=O [Shikonin] + O=C(c1cc(Cc2n[nH]c(=O)c3ccccc23)ccc1F)N1CCN(C(=O)C2CC2)CC1 [Olaparib] (partner 8 µM)
An outline of the steps:
as §1

For the cell line HCC-827, the relative viability is 0.936 in experiment [1] (first compound 0.08 µM); 0.904 in experiment [1] (first compound 0.253 µM); 0.892 in experiment [1] (first compound 2.53 µM); 0.89 in experiment [1] (first compound 8 µM); 0.518 with Shikonin + Luminespib (first compound 0.01 µM); 0.887 with Shikonin + Luminespib (first compound 0.1 µM). Also, the relative viability with Shikonin + Luminespib (first compound 0.3162 µM) worked out at 0.638; with Shikonin + Luminespib (first compound 1 µM), 0.64; in experiment [2] (first compound 0.08 µM), 0.322; in experiment [2] (first compound 0.253 µM) it was 0.325; in experiment [2] (first compound 0.8 µM), 0.315; in experiment [2] (first compound 2.53 µM) it was 0.304. In addition, the relative viability in experiment [2] (first compound 8 µM) worked out at 0.38; with Shikonin + Olaparib (first compound 0.01 µM), 0.678; with Shikonin + Olaparib (first compound 0.1 µM) it was 0.562; with Shikonin + Olaparib (first compound 0.3162 µM) it was 0.621; with Shikonin + Olaparib (first compound 1 µM), 0.52.
On to HOP-62, for which the relative viability worked out at 0.859 in experiment [1] (first compound 0.08 µM); 0.924 in experiment [1] (first compound 0.253 µM); 0.989 in experiment [1] (first compound 0.8 µM); 0.896 in experiment [1] (first compound 2.53 µM); 0.768 in experiment [1] (first compound 8 µM); 0.975 with Shikonin + Luminespib (first compound 0.01 µM). Also, the relative viability with Shikonin + Luminespib (first compound 0.1 µM) was determined as 0.763; with Shikonin + Luminespib (first compound 0.3162 µM) it was 0.96; with Shikonin + Luminespib (first compound 1 µM) it was 0.914; in experiment [2] (first compound 0.08 µM), 0.225; in experiment [2] (first compound 0.253 µM) it was 0.207; in experiment [2] (first compound 0.8 µM), 0.21. The relative viability in experiment [2] (first compound 2.53 µM) was 0.195; in experiment [2] (first compound 8 µM), 0.198; with Shikonin + Olaparib (first compound 0.01 µM), 0.267; in the experiment with Shikonin + Olaparib (first compound 0.1 µM) it was 0.455; with Shikonin + Olaparib (first compound 0.3162 µM), 0.379; in the experiment with Shikonin + Olaparib (first compound 1 µM), 0.676.
Take IA-LM: the relative viability in experiment [1] (first compound 0.08 µM) was 0.318; in experiment [1] (first compound 0.253 µM) it was 0.559; in experiment [1] (first compound 0.8 µM), 0.413; in experiment [1] (first compound 2.53 µM), 0.443; in experiment [1] (first compound 8 µM), 0.432; with Shikonin + Olaparib (first compound 0.01 µM), 0.993. Also, the relative viability with Shikonin + Olaparib (first compound 0.1 µM) is 0.891; with Shikonin + Olaparib (first compound 0.3162 µM), 0.893; with Shikonin + Olaparib (first compound 1 µM), 0.885.
For LC-2-ad, the relative viability was found to be 0.886 in experiment [1] (first compound 0.08 µM); 0.856 in experiment [1] (first compound 0.253 µM); 0.818 in experiment [1] (first compound 0.8 µM); 0.79 in experiment [1] (first compound 2.53 µM); 0.824 in experiment [1] (first compound 8 µM); 0.934 in the experiment with Shikonin + Luminespib (first compound 0.01 µM). Moreover, the relative viability came out at 1.11 with Shikonin + Luminespib (first compound 0.1 µM); 1.08 in the experiment with Shikonin + Luminespib (first compound 0.3162 µM); 1.07 with Shikonin + Luminespib (first compound 1 µM); 0.776 in experiment [2] (first compound 0.08 µM); 0.857 in experiment [2] (first compound 0.253 µM); 0.688 in experiment [2] (first compound 0.8 µM). In addition, the relative viability in experiment [2] (first compound 2.53 µM) was 0.728; in experiment [2] (first compound 8 µM), 0.768; with Shikonin + Olaparib (first compound 0.01 µM), 0.736; with Shikonin + Olaparib (first compound 0.1 µM) it was 0.872; with Shikonin + Olaparib (first compound 0.3162 µM), 0.689; with Shikonin + Olaparib (first compound 1 µM), 0.765.
Regarding LCLC-97TM1, the relative viability in experiment [1] (first compound 0.08 µM) stood at 0.195; in experiment [1] (first compound 0.8 µM), 0.133; in experiment [1] (first compound 2.53 µM), 0.158; in experiment [1] (first compound 8 µM), 0.191; with Shikonin + Luminespib (first compound 0.01 µM) it was 0.833; with Shikonin + Luminespib (first compound 0.1 µM), 0.776. In addition, the relative viability in the experiment with Shikonin + Luminespib (first compound 0.3162 µM) is 0.878; with Shikonin + Luminespib (first compound 1 µM), 0.717; in experiment [2] (first compound 0.08 µM), 0.215; in experiment [2] (first compound 0.253 µM) it was 0.305; in experiment [2] (first compound 0.8 µM) it was 0.243; in experiment [2] (first compound 2.53 µM), 0.242. Moreover, the relative viability in experiment [2] (first compound 8 µM) came out at 0.194; with Shikonin + Olaparib (first compound 0.01 µM) it was 0.383; with Shikonin + Olaparib (first compound 0.1 µM), 0.539; with Shikonin + Olaparib (first compound 0.3162 µM) it was 0.48; with Shikonin + Olaparib (first compound 1 µM), 0.419.
Consider LCLC-103H, for which the relative viability in experiment [1] (first compound 0.08 µM) amounted to 1.04; in experiment [1] (first compound 0.253 µM), 0.887; in experiment [1] (first compound 0.8 µM) it was 0.959; in experiment [1] (first compound 2.53 µM), 1.04; in experiment [1] (first compound 8 µM) it was 0.917; with Shikonin + Luminespib (first compound 0.01 µM), 1.01. Also, the relative viability was 1.17 with Shikonin + Luminespib (first compound 0.1 µM); 1.06 with Shikonin + Luminespib (first compound 0.3162 µM); 0.993 with Shikonin + Luminespib (first compound 1 µM); 0.688 in experiment [2] (first compound 0.08 µM); 0.719 in experiment [2] (first compound 0.253 µM); 0.666 in experiment [2] (first compound 0.8 µM). Also, the relative viability turned out to be 0.716 in experiment [2] (first compound 2.53 µM); 0.68 in experiment [2] (first compound 8 µM); 0.793 in the experiment with Shikonin + Olaparib (first compound 0.01 µM); 0.94 with Shikonin + Olaparib (first compound 0.1 µM); 0.788 with Shikonin + Olaparib (first compound 0.3162 µM); 0.839 with Shikonin + Olaparib (first compound 1 µM).
On to LK-2, for which the relative viability in experiment [1] (first compound 0.08 µM) was found to be 0.678; in experiment [1] (first compound 0.253 µM), 0.405; in experiment [1] (first compound 0.8 µM), 0.496; in experiment [1] (first compound 2.53 µM), 0.554; in experiment [1] (first compound 8 µM), 0.509; with Shikonin + Luminespib (first compound 0.01 µM), 0.195. Moreover, the relative viability with Shikonin + Luminespib (first compound 0.1 µM) is 0.185; in the experiment with Shikonin + Luminespib (first compound 0.3162 µM), 0.211; with Shikonin + Luminespib (first compound 1 µM), 0.17; in experiment [2] (first compound 0.08 µM), 0.308; in experiment [2] (first compound 0.253 µM) it was 0.293; in experiment [2] (first compound 0.8 µM) it was 0.388. Further, the relative viability in experiment [2] (first compound 2.53 µM) is 0.325; in experiment [2] (first compound 8 µM), 0.22; in the experiment with Shikonin + Olaparib (first compound 0.01 µM) it was 0.744; with Shikonin + Olaparib (first compound 0.1 µM), 0.887; in the experiment with Shikonin + Olaparib (first compound 0.3162 µM) it was 0.75; in the experiment with Shikonin + Olaparib (first compound 1 µM) it was 0.753.
On to LOU-NH91, for which the relative viability in experiment [1] (first compound 0.08 µM) is 0.944; in experiment [1] (first compound 0.253 µM), 0.873; in experiment [1] (first compound 2.53 µM), 0.998; in experiment [1] (first compound 8 µM), 0.918; with Shikonin + Luminespib (first compound 0.01 µM), 0.317; in the experiment with Shikonin + Luminespib (first compound 0.1 µM), 0.358. Further, the relative viability is 0.382 with Shikonin + Luminespib (first compound 0.3162 µM); 0.332 in the experiment with Shikonin + Luminespib (first compound 1 µM); 0.757 in experiment [2] (first compound 0.08 µM); 0.815 in experiment [2] (first compound 0.253 µM); 0.858 in experiment [2] (first compound 2.53 µM); 0.793 in experiment [2] (first compound 8 µM). Moreover, the relative viability with Shikonin + Olaparib (first compound 0.01 µM) is 0.926; with Shikonin + Olaparib (first compound 0.1 µM), 0.937; with Shikonin + Olaparib (first compound 0.3162 µM), 0.984; with Shikonin + Olaparib (first compound 1 µM), 0.896.
LU99A: the relative viability in experiment [1] (first compound 0.08 µM) turned out to be 0.516; in experiment [1] (first compound 0.253 µM), 0.405; in experiment [1] (first compound 0.8 µM) it was 0.521; in experiment [1] (first compound 2.53 µM), 0.582; in experiment [1] (first compound 8 µM), 0.563; with Shikonin + Luminespib (first compound 0.01 µM) it was 0.165. Further, the relative viability with Shikonin + Luminespib (first compound 0.1 µM) turned out to be 0.242; in the experiment with Shikonin + Luminespib (first compound 0.3162 µM), 0.268; with Shikonin + Luminespib (first compound 1 µM), 0.177; in experiment [2] (first compound 0.08 µM), 0.802; in experiment [2] (first compound 0.253 µM), 0.92; in experiment [2] (first compound 0.8 µM) it was 0.895. The relative viability was 0.919 in experiment [2] (first compound 2.53 µM); 0.991 in experiment [2] (first compound 8 µM); 0.256 with Shikonin + Olaparib (first compound 0.01 µM); 0.272 with Shikonin + Olaparib (first compound 0.1 µM); 0.233 with Shikonin + Olaparib (first compound 0.3162 µM); 0.222 in the experiment with Shikonin + Olaparib (first compound 1 µM).
